PubChem BioAssay (NCI)
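Method: 48-hour compound exposure of cells in 96-well plates, five concentrations, linear interpolation of endpoints. Here, GI50 denotes the concentration required for 50% inhibition of growth. Definition used: TGI = concentration required for complete inhibition of growth.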

Key:
Test in all cases: NCI tumour cell line growth inhibition, 48 h
786-0 renal = tested on: 786-0 renal
A498 renal = tested on: A498 renal
A549 NSCLC = tested on: A549 NSCLC
ACHN renal = tested on: ACHN renal
BT-549 breast = tested on: BT-549 breast
CAKI-1 renal = tested on: CAKI-1 renal
CCRF-CEM leukemia = tested on: CCRF-CEM leukemia
COLO 205 colon = tested on: COLO 205 colon
DU-145 prostate = tested on: DU-145 prostate
EKVX NSCLC = tested on: EKVX NSCLC
HCC-2998 colon = tested on: HCC-2998 colon
HCT-116 colon = tested on: HCT-116 colon
HCT-15 colon = tested on: HCT-15 colon
HL-60(TB) leukemia = tested on: HL-60(TB) leukemia
HOP-62 NSCLC = tested on: HOP-62 NSCLC
HOP-92 NSCLC = tested on: HOP-92 NSCLC
HS 578T breast = tested on: HS 578T breast
HT29 colon = tested on: HT29 colon
IGROV1 ovarian = tested on: IGROV1 ovarian
K-562 leukemia = tested on: K-562 leukemia
KM12 colon = tested on: KM12 colon
LOX IMVI melanoma = tested on: LOX IMVI melanoma
M14 melanoma = tested on: M14 melanoma
MALME-3M melanoma = tested on: MALME-3M melanoma
MCF7 breast = tested on: MCF7 breast
MDA-MB-231 breast = tested on: MDA-MB-231 breast
MDA-MB-435 = tested on: MDA-MB-435
MOLT-4 leukemia = tested on: MOLT-4 leukemia
NCI-H226 lung = tested on: NCI-H226 lung
NCI-H23 lung = tested on: NCI-H23 lung
NCI-H460 lung = tested on: NCI-H460 lung
NCI-H522 lung = tested on: NCI-H522 lung
NCI/ADR-RES ovarian = tested on: NCI/ADR-RES ovarian
OVCAR-3 ovarian = tested on: OVCAR-3 ovarian
OVCAR-4 ovarian = tested on: OVCAR-4 ovarian
OVCAR-5 ovarian = tested on: OVCAR-5 ovarian
OVCAR-8 ovarian = tested on: OVCAR-8 ovarian
PC-3 prostate = tested on: PC-3 prostate
RPMI-8226 leukemia = tested on: RPMI-8226 leukemia
RXF 393 renal = tested on: RXF 393 renal
SF-268 CNS = tested on: SF-268 CNS
SF-295 CNS = tested on: SF-295 CNS
SF-539 CNS = tested on: SF-539 CNS
SK-MEL-2 melanoma = tested on: SK-MEL-2 melanoma
SK-MEL-28 melanoma = tested on: SK-MEL-28 melanoma
SK-MEL-5 melanoma = tested on: SK-MEL-5 melanoma
SK-OV-3 ovarian = tested on: SK-OV-3 ovarian
SN12C renal = tested on: SN12C renal
SNB-19 CNS = tested on: SNB-19 CNS
SNB-75 CNS = tested on: SNB-75 CNS
SR leukemia = tested on: SR leukemia
SW-620 colon = tested on: SW-620 colon
T-47D breast = tested on: T-47D breast
TK-10 renal = tested on: TK-10 renal
U251 CNS = tested on: U251 CNS
UACC-257 melanoma = tested on: UACC-257 melanoma
UACC-62 melanoma = tested on: UACC-62 melanoma
UO-31 renal = tested on: UO-31 renal

Compound `CS(=O)(=O)c1ccc2c(c1)c1c(n2C(=O)c2ccc(Cl)cc2)CCCC1` has a GI50 (786-0 renal) of 3.4 µM, a TGI (786-0 renal) greater than 100 µM and a GI50 (A498 renal) greater than 100 µM. For the same compound, the TGI (A498 renal) was greater than 100 µM, the GI50 (A549 NSCLC) was 13.5 µM and the TGI (A549 NSCLC) was greater than 100 µM. The GI50 (ACHN renal) was 5.1 µM, the TGI (ACHN renal) was greater than 100 µM and the GI50 (BT-549 breast) was 1.64 µM. For the same compound, the TGI (BT-549 breast) was greater than 100 µM, the GI50 (CAKI-1 renal) was 2.19 µM and the TGI (CAKI-1 renal) was greater than 100 µM. It also gave a GI50 (CCRF-CEM leukemia) of 2.05 µM, a TGI (CCRF-CEM leukemia) greater than 100 µM and a GI50 (COLO 205 colon) of 18.9 µM. The TGI (COLO 205 colon) was greater than 100 µM, the GI50 (DU-145 prostate) was 7.52 µM and the TGI (DU-145 prostate) was greater than 100 µM. The GI50 (EKVX NSCLC) was 14 µM, the TGI (EKVX NSCLC) was greater than 100 µM and the GI50 (HCC-2998 colon) was 16.8 µM. It also gave a TGI (HCC-2998 colon) greater than 100 µM, a GI50 (HCT-116 colon) of 1.27 µM and a TGI (HCT-116 colon) greater than 100 µM. The GI50 (HCT-15 colon) was 1.32 µM, the TGI (HCT-15 colon) was greater than 100 µM and the GI50 (HL-60(TB) leukemia) was 1.13 µM. The GI50 (HOP-62 NSCLC) was 4.48 µM, the TGI (HOP-62 NSCLC) was greater than 100 µM and the GI50 (HOP-92 NSCLC) was 2.63 µM. The TGI (HOP-92 NSCLC) was greater than 100 µM, the GI50 (HS 578T breast) was 1.41 µM and the TGI (HS 578T breast) was greater than 100 µM. For the same compound, the GI50 (HT29 colon) was 4.34 µM, the TGI (HT29 colon) was 67.4 µM and the GI50 (IGROV1 ovarian) was 3.34 µM. For the same compound, the TGI (IGROV1 ovarian) was greater than 100 µM, the GI50 (K-562 leukemia) was 1.31 µM and the TGI (K-562 leukemia) was greater than 100 µM. For the same compound, the GI50 (KM12 colon) was 1.59 µM, the TGI (KM12 colon) was greater than 100 µM and the GI50 (LOX IMVI melanoma) was 2.43 µM. The TGI (LOX IMVI melanoma) was greater than 100 µM, the GI50 (M14 melanoma) was 1.56 µM and the TGI (M14 melanoma) was greater than 100 µM. For the same compound, the GI50 (MALME-3M melanoma) was 7.23 µM, the TGI (MALME-3M melanoma) was greater than 100 µM and the GI50 (MCF7 breast) was 1.08 µM. It also gave a TGI (MCF7 breast) greater than 100 µM, a GI50 (MDA-MB-231 breast) of 6.83 µM and a TGI (MDA-MB-231 breast) greater than 100 µM. For the same compound, the GI50 (MDA-MB-435) was 0.614 µM, the TGI (MDA-MB-435) was 1.51 µM and the GI50 (MOLT-4 leukemia) was 2.86 µM. It also gave a TGI (MOLT-4 leukemia) greater than 100 µM, a GI50 (NCI-H226 lung) of 4.62 µM and a TGI (NCI-H226 lung) greater than 100 µM. It also gave a GI50 (NCI-H23 lung) of 28.2 µM, a TGI (NCI-H23 lung) greater than 100 µM and a GI50 (NCI-H460 lung) of 1.5 µM. For the same compound, the TGI (NCI-H460 lung) was greater than 100 µM, the GI50 (NCI-H522 lung) was 0.717 µM and the TGI (NCI-H522 lung) was 2.57 µM. The GI50 (NCI/ADR-RES ovarian) was 1.4 µM, the TGI (NCI/ADR-RES ovarian) was greater than 100 µM and the GI50 (OVCAR-3 ovarian) was 5.01 µM. For the same compound, the TGI (OVCAR-3 ovarian) was 46.3 µM, the GI50 (OVCAR-4 ovarian) was 21.1 µM and the TGI (OVCAR-4 ovarian) was greater than 100 µM. The GI50 (OVCAR-5 ovarian) was 19.8 µM, the TGI (OVCAR-5 ovarian) was greater than 100 µM and the GI50 (OVCAR-8 ovarian) was 6.49 µM. The TGI (OVCAR-8 ovarian) was greater than 100 µM, the GI50 (PC-3 prostate) was 4.75 µM and the TGI (PC-3 prostate) was greater than 100 µM. For the same compound, the GI50 (RPMI-8226 leukemia) was 4.6 µM, the TGI (RPMI-8226 leukemia) was greater than 100 µM and the GI50 (RXF 393 renal) was 4.23 µM. For the same compound, the TGI (RXF 393 renal) was 40.7 µM, the GI50 (SF-268 CNS) was 21.5 µM and the TGI (SF-268 CNS) was greater than 100 µM. For the same compound, the GI50 (SF-295 CNS) was 1.96 µM, the TGI (SF-295 CNS) was greater than 100 µM and the GI50 (SF-539 CNS) was 6.31 µM. For the same compound, the TGI (SF-539 CNS) was 35 µM, the GI50 (SK-MEL-2 melanoma) was 1.15 µM and the TGI (SK-MEL-2 melanoma) was greater than 100 µM. The GI50 (SK-MEL-28 melanoma) was 2.97 µM, the TGI (SK-MEL-28 melanoma) was greater than 100 µM and the GI50 (SK-MEL-5 melanoma) was 2.45 µM. The TGI (SK-MEL-5 melanoma) was greater than 100 µM, the GI50 (SK-OV-3 ovarian) was 22.1 µM and the TGI (SK-OV-3 ovarian) was greater than 100 µM. The GI50 (SN12C renal) was 3.43 µM, the TGI (SN12C renal) was greater than 100 µM and the GI50 (SNB-19 CNS) was 4.16 µM. The TGI (SNB-19 CNS) was greater than 100 µM, the GI50 (SNB-75 CNS) was 5.05 µM and the TGI (SNB-75 CNS) was 64.9 µM. The GI50 (SR leukemia) was 1.1 µM, the TGI (SR leukemia) was greater than 100 µM and the GI50 (SW-620 colon) was 1.61 µM. The TGI (SW-620 colon) was greater than 100 µM, the GI50 (T-47D breast) was 2.54 µM and the TGI (T-47D breast) was greater than 100 µM. For the same compound, the GI50 (TK-10 renal) was greater than 100 µM, the TGI (TK-10 renal) was greater than 100 µM and the GI50 (U251 CNS) was 3.41 µM. The TGI (U251 CNS) was greater than 100 µM, the GI50 (UACC-257 melanoma) was greater than 100 µM and the TGI (UACC-257 melanoma) was greater than 100 µM. For the same compound, the GI50 (UACC-62 melanoma) was 1.27 µM, the TGI (UACC-62 melanoma) was greater than 100 µM and the GI50 (UO-31 renal) was 3.22 µM. The TGI (UO-31 renal) was greater than 100 µM.
